# From paper PMC9769694, “Discovery of Two Inhibitors of the Type IV Pilus Assembly ATPase PilB as Potential Antivirulence Compounds” (Microbiology Spectrum, 2022)
# Values joined by “and” are separate entries in the source; they are usually repeats but may differ in a detail not shown here. Equal entries are not always repeated.
# How the values were obtained:
# CtPilB = CtPilB (Chloracidobacterium thermophilum, UniProt G2LDI3); assay: Malachite green ATPase assay, dose response (benchtop); assay type: biochemical; details: IC50, CtPilB ATPase activity, full-length CtPilB, curve fitting, three independent experiments
# Method: The full-length CtPilB and the CtPilBΔN variant (with the first 139 residues at the N terminus truncated) were purified as preciously described ([29]). The HTS was conducted using 384-well microplates (Greiner, cat no. 781101). Each microwell for the screen contained a 15-μL reaction mixture consisting of 75 nM CtPilB, 0.5 mM ATP, 20 μM of a library compound, and 2% DMSO in activity buffer (50 mM N-tris(hydroxymethyl)methyl-3-aminopropanesulfonic acid [TAPS], 50 mM Tris, 75 mM KCl, 50 mM sodium acetate, 5 mM MgCl2, 50 mM ZnCl2 [pH 8.7]) ([29]). Reaction mixtures were incubated at 55°C for 10 min and transferred to ice for 5 min to stop the enzymatic reaction. MG reagent (50 μL) was added to each well for color development. After a 15-minute incubation, 5 μL of 34% (wt/vol) sodium-citrate (MP Chemicals) was added and the plate was mixed by shaking ([28], [29]). Absorbance at 620 nm (A620) was measured using a SpectraMax M5 microplate reader at room temperature. The HTS was performed at the Virginia Tech Center for Drug Discovery (VTCDD) Screening Laboratory.
# The effects of inhibitors on the ATPase activity of CtPilB and CtPilBΔN and the binding of MANT-ATP were determined as described previously ([28], [29]). Stock solutions were prepared by dissolving benserazide hydrochloride (Alfa Aesar) or levodopa (Spectrum Chemical Mfg. Corp.) in dimethyl sulfoxide (DMSO; Fisher Biotech). Next, 10× working stocks for given concentrations of an inhibitor were freshly prepared before their use in an experiment. GraphPad Prism v7.04 was used for curve fitting and Student’s t test was used for statistical analysis.
# M. xanthus T4P assembly = assay: T4P assembly, dot blot of T4P fractions with anti-pilin antibodies; assay type: cell-based, Myxococcus xanthus; details: strain YZ603 (ΔdifE), 16-128 μM tested, P < 0.05
# Method: Alternatively, they may inhibit other processes such as pilin production or T4P retraction. […] Briefly, pre-existing pili were sheared off and separated from cells by vortexing and centrifugation. These shaved or unpiliated cells were allowed to assemble new T4P in the presence or absence of a PilB inhibitor. T4P fractions were prepared and analyzed by dot blotting with anti-pilin antibodies as a measure of T4P levels ([28]). […] As such, the T4P fraction represents the level of T4P assembly without complication from T4P retraction ([28]).
# Piliation levels of the M. xanthus strain YZ603 (ΔdifE) ([52]) were analyzed by dot-blotting with anti-PilA antibodies as previously described ([28]). This study included a fraction representing the “Basal” T4P levels for a given treatment. This is the T4P fraction from sheared cells mixed with an inhibitor and pre-equilibrated on ice for 10 min before the cells were incubated at 32°C for 20 min to allow T4P regrowth or assembly. These fractions were used as controls and subtracted as the baseline in data analysis.
# M. xanthus motility = assay: Colony expansion of S-motile strains on hard agar; assay type: cell-based, Myxococcus xanthus; details: strains YZ1674 and YZ2232, P < 0.05
# From the text: On the other hand, YZ1674 and YZ2232, which have both A and S motility, were affected in their expansion on hard agar by both compounds (Fig. S4 and S5) at concentrations similar to those on soft agar. Indeed, the results with hard agar plates mirror those with soft agar. […] Because neither benserazide nor levodopa had any effect on A motility (Fig. S3C and D), the net differences on hard agar at different concentrations of the inhibitor (Fig. S4) can be viewed as confirmation of its effect on S motility (Fig. 5). […] It is plausible that this inhibition is attributable to their effects on the PilB ATPase in vivo.
# (§1) M. xanthus was grown and maintained at 32°C in Casitone-yeast extract (CYE) medium ([49]). Motility assays were conducted with strains DK10416 (ΔpilB) ([40]), YZ1674 (ΔpilB att::MxpilB) ([50]), and YZ2232 (ΔpilB att::MC3pilB) ([30], [51]) as previously described ([28]). One modification was that 10% India ink was included in the cell suspension to mark the initial spot on agar plates. All experiments were conducted in quintuplicates and the diameter of the initial spot, as marked by India ink, was subtracted for data analysis.
# [1] = test system: M. xanthus pilin (PilA) production; assay: Pilin production, dot blot of whole cells with anti-PilA antibodies; assay type: cell-based, Myxococcus xanthus; details: strain YZ603, whole cell dot blot
# Method: Fig. 6A and B show a representative of the data from three biological experiments, each conducted with 4 technical replicates (R1 to R4).
# Piliation levels of the M. xanthus strain YZ603 (ΔdifE) ([52]) were analyzed by dot-blotting with anti-PilA antibodies as previously described ([28]). This study included a fraction representing the “Basal” T4P levels for a given treatment. […] These fractions were used as controls and subtracted as the baseline in data analysis.
# M. xanthus S motility = assay: T4P-mediated social (S) motility, colony expansion on soft agar; assay type: cell-based, Myxococcus xanthus; details: soft agar, strains YZ1674 (MxPilB) and YZ2232 (MC3PilB), 5 days, P < 0.05
# From the text: Benserazide and levodopa were examined to determine whether they could impact the T4P assembly function of PilB in vivo using M. xanthus as the model bacterium ([28]). […] Three M. xanthus strains were used for these experiments. Strain DK10416 lacks S motility because it is a pilB deletion (ΔpilB) mutant ([40]). The other two strains both assemble T4P and are proficient in S motility ([30]). Strain YZ1674 produces the wild-type (WT) M. xanthus PilB (MxPilB). YZ2232 expresses MC3PilB, a PilB chimera with the N terminus of MxPilB fused to the C-terminal ATPase domain of CtPilB ([30]). The PilB ATPase domains of MxPilB and MC3PilB are highly similar, with 66% shared identity and 77% similarity (Fig. S1).
# FIG 5 Benserazide and levodopa inhibit T4P-mediated social (S) motility in Myxococcus xanthus. Expansion rates (cm/day) of the MxPilB (YZ1674) and the MC3PilB (YZ2232) strains on soft agar plates by S motility in the presence of (A and C) benserazide and (B and D) levodopa after 5 days of incubation. Results from three independent experiments are shown, each performed in quintuplicates with data points represented by dots of the same color. Horizontal black lines represent overall averages. Expansion rates were normalized by subtracting that of the ΔpilB strain, which has no S motility (also see Fig. S4). Asterisks (*) indicate that the values at the indicated concentrations are statistically different (P < 0.05) from those of the no-inhibitor control.
# as §1
# Chain of CtPilB (G2LDI3 entry or part of it): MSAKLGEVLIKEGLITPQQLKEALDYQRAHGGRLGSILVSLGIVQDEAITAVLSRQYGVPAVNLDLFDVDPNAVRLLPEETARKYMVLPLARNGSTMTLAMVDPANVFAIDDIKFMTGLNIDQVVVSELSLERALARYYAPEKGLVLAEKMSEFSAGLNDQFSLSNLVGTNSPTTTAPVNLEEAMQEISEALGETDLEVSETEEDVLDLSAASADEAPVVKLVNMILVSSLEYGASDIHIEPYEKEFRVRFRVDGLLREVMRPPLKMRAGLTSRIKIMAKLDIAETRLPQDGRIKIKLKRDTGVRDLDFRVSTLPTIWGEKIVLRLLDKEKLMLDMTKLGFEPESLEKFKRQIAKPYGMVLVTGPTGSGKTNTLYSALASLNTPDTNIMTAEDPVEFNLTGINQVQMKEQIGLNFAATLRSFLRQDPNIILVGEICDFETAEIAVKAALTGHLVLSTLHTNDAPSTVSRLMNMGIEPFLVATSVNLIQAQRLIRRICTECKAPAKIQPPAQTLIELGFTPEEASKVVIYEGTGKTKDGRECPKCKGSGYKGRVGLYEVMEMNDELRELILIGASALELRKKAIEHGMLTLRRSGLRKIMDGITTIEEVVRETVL
smiles,measurement,setting,value
NC(CO)C(=O)NNCc1ccc(O)c(O)c1O (stereo not shown) [benserazide],IC50,CtPilB,2.1 ± 0.4 µM
same,concentration giving statistically significant decrease in T4P assembly,M. xanthus T4P assembly,≥ 16 µM
same,concentration giving statistically significant reduction of expansion on hard agar,M. xanthus motility,≥ 8 µM
same,effect on pilin production level,[1],neither compound had any detectable effect
same,concentration giving significant inhibition of S motility,M. xanthus S motility,≥ 8 µM
"N[C@@H](Cc1ccc(O)c(O)c1)C(=O)O [levodopa, 3,4-dihydroxyphenylalanine]",IC50,CtPilB,58 µM and 58.8 µM
same,concentration giving statistically significant decrease in T4P assembly,M. xanthus T4P assembly,≥ 32 µM
same,concentration giving statistically significant reduction of expansion on hard agar,M. xanthus motility,≥ 32 µM
same,effect on pilin production level,[1],neither compound had any detectable effect
same,concentration giving significant inhibition of S motility,M. xanthus S motility,≥ 32 µM
